The results in this text go back to patent US12559470B2, “FGFR inhibitors and uses thereof” (University of Southern California, priority 2018, dated 2026).

The assay deals with FGFR2 (Homo sapiens, UniProt P21802). Briefly: In vitro inhibitory assay (IC50) against FGFR2. The assay is classed as biochemical. On the procedure:
The efficacy of the compounds to inhibit the kinase activity of FGFRs was measured by the determination of the IC50 value.
The results are listed in Table 4 expressed as IC50 values (the concentration of compound at which 50% of the enzyme activity is inhibited).

The term IC50 denotes the concentration at which inhibition is half-maximal.

Chain of FGFR2 (P21802 22-821): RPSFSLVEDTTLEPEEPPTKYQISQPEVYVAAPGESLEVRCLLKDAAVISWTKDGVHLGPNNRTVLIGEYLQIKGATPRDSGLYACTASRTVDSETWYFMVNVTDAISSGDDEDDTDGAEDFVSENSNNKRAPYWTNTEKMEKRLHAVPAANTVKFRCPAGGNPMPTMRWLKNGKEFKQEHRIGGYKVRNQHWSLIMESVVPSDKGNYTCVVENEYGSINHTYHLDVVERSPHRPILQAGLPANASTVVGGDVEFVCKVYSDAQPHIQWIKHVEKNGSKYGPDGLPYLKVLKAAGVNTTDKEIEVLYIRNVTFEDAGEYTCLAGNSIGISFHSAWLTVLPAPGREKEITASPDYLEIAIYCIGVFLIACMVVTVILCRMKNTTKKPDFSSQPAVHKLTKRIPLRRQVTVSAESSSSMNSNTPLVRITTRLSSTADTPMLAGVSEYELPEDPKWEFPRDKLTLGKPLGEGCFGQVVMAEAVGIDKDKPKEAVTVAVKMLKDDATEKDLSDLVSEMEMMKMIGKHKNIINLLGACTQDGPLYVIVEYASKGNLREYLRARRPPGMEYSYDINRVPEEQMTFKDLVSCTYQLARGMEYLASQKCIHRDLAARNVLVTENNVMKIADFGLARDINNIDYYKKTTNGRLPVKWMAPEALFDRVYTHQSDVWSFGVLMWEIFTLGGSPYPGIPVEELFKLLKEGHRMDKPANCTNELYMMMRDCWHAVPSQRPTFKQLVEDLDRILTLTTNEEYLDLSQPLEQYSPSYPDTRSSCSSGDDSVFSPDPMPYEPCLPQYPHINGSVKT

In turn, `CCN1CCN(c2ccc(Nc3cc(-c4cccnc4Nc4c(Cl)c(OC)cc(OC)c4Cl)ncn3)cc2)CC1` [Compound 1, 6-(2-((2,6-dichloro-3,5-dimethoxyphenyl)amino)pyridin-3-yl)-N-(4-(4-ethylpiperazin-1-yl)phenyl)pyrimidin-4-amine] showed an IC50 of 6 nM.
